For orientation: IC50 means the midpoint of a concentration-inhibition curve.

IC50 data for 29 compounds are collected here from US8591943B2, “Pyrazolo[1,5-a]pyrimidine derivatives as mTOR inhibitors” (Merck Sharp & Dohme Corp., priority 2009, dated 2013).

Like-named read-outs stand apart in the source and are kept apart here.

One assay deals with mTOR enzyme (Homo sapiens, UniProt P42345). The assay can be described thus: mTOR Kinase Assay. The class given is biochemical. The protocol:
The mTOR assay buffer contains 10 mM hepes (pH 7.4), 50 mM NaCl, 100 μg/ml BSA, 50 mM B-glycerophosphate, 10 mM MnCl2 and 0.5 mM DTT. 20 ng of mTOR enzyme is preincubated with the compound for 10 minutes. 5 μM ATP and 0.1 μM GSTS6K is added. The reaction is incubated for one hour at 30° C. Anti phospho p70S6K (about 1.7 ng/well) and anti GSTXL665 (1:1 Ratio with the substrate GSTS6K) are added after incubating. The plates are read at least 2 hours after adding the anti phospho p70S6K and the anti GSTXL665.

The target of the next assay is T1, Cyclin E/CDK2 (Homo sapiens, UniProt P24941).
T1 construct: made in house; host or cells: SF9 cells, baculovirus co-infection
Put plainly: In Vitro Cyclin E/CDK2 Kinase Assay. The class given is biochemical. The settings on record: rated A-F. From the text:
Cyclin E was cloned into pVL1393 (Pharmingen, La Jolla, Calif.) by PCR, with the addition of 5 histidine residues at the amino-terminal end to allow purification on nickel resin. The expressed protein was approximately 45 kDa. CDK2 was cloned into pVL1393 by PCR, with the addition of a haemaglutinin epitope tag at the carboxy-terminal end (YDVPDYAS). The expressed protein was approximately 34 kDa in size.
Recombinant baculoviruses expressing cyclin E and CDK2 were co-infected into SF9 cells at an equal multiplicity of infection (MOI=5), for 48 hrs. Cells were harvested by centrifugation at 1000 RPM for 10 minutes, then pellets lysed on ice for 30 minutes in five times the pellet volume of lysis buffer containing 50 mM Tris pH 8.0, 150 mM NaCl, 1% NP40, 1 mM DTT and protease inhibitors (Roche Diagnostics GmbH, Mannheim, Germany). Lysates were spun down at 15000 RPM for 10 minutes and the supernatant retained. 5 mL of nickel beads (for one liter of SF9 cells) were washed three times in lysis buffer (Qiagen GmbH, Germany). Imidazole was added to the baculovirus supernatant to a final concentration of 20 mM, then incubated with the nickel beads for 45 minutes at 4° C. Proteins were eluted with lysis buffer containing 250 mM imidazole. Eluate was dialyzed about 15 hours in 2 liters of kinase buffer containing 50 mM Tris pH 8.0, 1 mM DTT, 10 mM MgCl2, 100 μM sodium orthovanadate and 20% glycerol. Enzyme was stored in aliquots at −70° C.
Cyclin E/CDK2 kinase assays can be performed as described below in low protein binding 96-well plates (Corning Inc, Corning, N.Y.).
The substrate used in these reactions is a biotinylated peptide derived from Histone H1 (from Amersham, UK). The substrate is thawed on ice and diluted to 2 μM in kinase buffer. Test compounds are diluted in 10% DMSO to desirable concentrations. For each kinase reaction, 20 μL of the 50 μg/mL enzyme solution (1 μg of enzyme) and 20 μl of the 2 μM substrate solution are mixed, then combined with 10 μL of diluted compound in each well for testing. The kinase reaction is initiated by addition of 50 μL of 2 μM ATP and 0.1 μCi of ^33P-ATP (from Amersham, UK). The reaction is allowed to run for 1 hour at room temperature, then is stopped by adding 200 μL of stop buffer containing 0.1% Triton X-100, 1 mM ATP, 5 mM EDTA, and 5 mg/mL streptavidine coated SPA beads (from Amersham, UK) for 15 minutes. The SPA beads are then captured onto a 96-well GFIB filter plate (Packard/Perkin Elmer Life Sciences) using a Filtermate universal harvester (Packard/Perkin Elmer Life Sciences.). Non-specific signals are eliminated by washing the beads twice with 2M NaCl then twice with 2 M NaCl with 1% phosphoric acid. The radioactive signal can then be measured using, for example, a TopCount 96 well liquid scintillation counter (from Packard/Perkin Elmer Life Sciences).

Another assay addresses T2, recombinant His-CHK1 (Homo sapiens, UniProt O14757).
T2 sequence (O14757 1-265 limits assumed): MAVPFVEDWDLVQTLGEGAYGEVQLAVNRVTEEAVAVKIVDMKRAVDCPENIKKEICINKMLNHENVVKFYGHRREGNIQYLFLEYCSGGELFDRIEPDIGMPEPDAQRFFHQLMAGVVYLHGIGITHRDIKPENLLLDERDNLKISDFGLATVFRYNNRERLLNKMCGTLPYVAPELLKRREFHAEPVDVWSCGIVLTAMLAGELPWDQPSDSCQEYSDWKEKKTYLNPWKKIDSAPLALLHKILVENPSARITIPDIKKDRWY
The assay can be described thus: CHK1 In Vitro Kinase Assay.

Take `Nc1c(Br)c(C2CCC(CC(=O)O)CC2)nc2c(-c3cnc4ccccc4c3)cnn12` (single isomer, unassigned) [Compound 5.4, 2-(4-(7-amino-6-bromo-3-(quinolin-3-yl)pyrazolo[1,5-a]pyrimidin-5-yl)cyclohexyl)acetic acid]: the IC50 is less than 100 nM at mTOR enzyme (rated A-F), greater than 5000 nM at Cyclin E/CDK2 and greater than 5000 nM at recombinant His-CHK1.

For `COC(=O)[C@@H]1CC[C@H](c2cc(N)n3ncc(-c4cnn(C)c4)c3n2)CN1` (stereo in doubt) [Compound 2.5], the IC50 is 101 to 200 nM on mTOR enzyme (rated A-F), greater than 5000 nM against Cyclin E/CDK2 and 501 to 1000 nM at recombinant His-CHK1.

For the compound `COC(=O)[C@@H]1CC[C@H](c2nc3c(-c4cnc5ccccc5c4)cnn3c(N)c2Br)CN1` (stereo in doubt) [Compound 2.6], the 50% inhibitory concentration (IC50) is less than 100 nM at mTOR enzyme (rated A-F), greater than 5000 nM at Cyclin E/CDK2 and 1000 to 5000 nM at recombinant His-CHK1.

On to `COC(=O)[C@H]1CC[C@@H](c2nc3c(-c4cnc5ccccc5c4)cnn3c(N)c2Br)CN1` (stereo in doubt) [Compound 2.7], for which the IC50 was 101 to 200 nM on mTOR enzyme (rated A-F), greater than 5000 nM on Cyclin E/CDK2 and greater than 5000 nM on recombinant His-CHK1.

As to `Nc1cc(C2CCC(C(=O)O)NC2)nc2c(-c3cnc4ccccc4c3)cnn12` (stereo not shown) [Compound 1.1, 5-(7-amino-3-(quinolin-3-yl)pyrazolo[1,5-a]pyrimidin-5-yl)piperidine-2-carboxylic acid], at mTOR enzyme, the IC50 was determined as 12.4 nM.

Regarding `Cn1cc(-c2cnn3c(N)cc(C4CCC(C(=O)O)NC4)nc23)cn1` (stereo not shown) [Compound 1.2], the IC50 on mTOR enzyme worked out at 146 nM.

`Nc1cc(C2CCC(C(=O)O)NC2)nc2c(-c3cn[nH]c3)cnn12` (stereo not shown) [Compound 1.5]: the concentration for half-maximal inhibition (IC50) against mTOR enzyme (rated A-F) was less than 100 nM; against Cyclin E/CDK2 it was greater than 5000 nM; at recombinant His-CHK1, greater than 5000 nM.

As to `Nc1c(Br)c(C2CCC(C(=O)O)NC2)nc2c(-c3cnc4ccccc4c3)cnn12` (stereo not shown) [Compound 2.2, 5-(7-amino-6-bromo-3-(quinolin-3-yl)pyrazolo[1,5-a]pyrimidin-5-yl)piperidine-2-carboxylic acid], the values for the IC50 against mTOR enzyme (rated A-F), against Cyclin E/CDK2 and at recombinant His-CHK1 were less than 100 nM, greater than 5000 nM and greater than 5000 nM, respectively.

As to `COC(=O)C1CCC(c2nc3c(-c4cnc5ccccc5c4)cnn3c(N)c2Br)CN1` (stereo not shown) [Compound 2.3, Methyl 5-(7-amino-6-bromo-3-(quinolin-3-yl)pyrazolo[1,5-a]pyrimidin-5-yl)piperidine-2-carboxylate], the IC50 against mTOR enzyme (rated A-F) was less than 100 nM; on Cyclin E/CDK2 it was greater than 5000 nM; at recombinant His-CHK1, 1000 to 5000 nM.

On to `COC(=O)C1CCC(c2nc3c(-c4cnn(C)c4)cnn3c(N)c2Br)CN1` (stereo not shown) [Compound 2.4], for which the IC50 at mTOR enzyme (rated A-F) was less than 100 nM; on Cyclin E/CDK2, greater than 5000 nM; on recombinant His-CHK1, 101 to 200 nM.

Take `COC(=O)C1CCC(c2cc(N)n3ncc(-c4cnn(C)c4)c3n2)CN1` (stereo not shown) [Compound 2.8]: the half-maximal inhibitory concentration (IC50) against mTOR enzyme (rated A-F) is 501 to 1000 nM; at Cyclin E/CDK2 it was greater than 5000 nM; at recombinant His-CHK1, 1000 to 5000 nM.

On to `CN(C)C(=O)C1CCC(c2cc(N)n3ncc(-c4cnn(C)c4)c3n2)CN1` (stereo not shown) [Compound 2.9], for which the IC50 at mTOR enzyme (rated A-F) is 1000 to 5000 nM; at recombinant His-CHK1 it was greater than 5000 nM.

As for `Nc1c(Br)c([C@H]2CC[C@H]3C(=O)NC(=O)N3C2)nc2c(-c3cnc4ccccc4c3)cnn12` [Compound 3.10], the IC50 on mTOR enzyme (rated A-F) is less than 100 nM; against Cyclin E/CDK2 it was 501 to 1000 nM; at recombinant His-CHK1, greater than 5000 nM.

On to `Cn1cc(-c2cnn3c(N)c(Br)c(C4CCC(C(=O)O)C4)nc23)cn1` (stereo not shown) [Compound 4.5], for which the results for the IC50 at mTOR enzyme (rated A-F), on Cyclin E/CDK2 and at recombinant His-CHK1 were 101 to 200 nM, greater than 5000 nM and greater than 5000 nM, respectively.

As to `Nc1c(Br)c([C@H]2CC[C@H](C(=O)O)CC2)nc2c(-c3ccc(-c4cccnc4)nc3)cnn12` [Compound 4.11], the IC50 at mTOR enzyme (rated A-F) is less than 100 nM; at Cyclin E/CDK2, greater than 5000 nM; at recombinant His-CHK1, greater than 5000 nM.

In the case of `Nc1c(Br)c([C@H]2CC[C@H](C(=O)O)CC2)nc2c(-c3ccc(-c4ccncc4)nc3)cnn12` [Compound 4.12], the half-inhibitory concentration (IC50) is less than 100 nM against mTOR enzyme (rated A-F), greater than 5000 nM on Cyclin E/CDK2 and greater than 5000 nM on recombinant His-CHK1.

As to `N#CCC1CCC(c2nc3c(-c4cnc5ccccc5c4)cnn3c(N)c2Br)CC1` (stereo not shown) [Compound 5.2], the IC50 against mTOR enzyme (rated A-F) was less than 100 nM; at Cyclin E/CDK2 it was greater than 5000 nM; at recombinant His-CHK1 it was greater than 5000 nM.

`N#Cc1c(C2CCC(CC(=O)O)CC2)nc2c(-c3cnc4ccccc4c3)cnn2c1N` (stereo not shown) [Compound 6.6, [4-(7-Amino-6-cyano-3-quinolin-3-yl-pyrazolo[1,5-a]pyrimidin-5-yl)-cyclohexyl]-acetic acid] displayed an IC50 on mTOR enzyme of 1.4 nM.

For the compound `Nc1c(Br)c(C2CCC3(CC2)OCCO3)nc2c(-c3cnc4ccccc4c3)cnn12` [Compound 6.7], the concentration for half-maximal inhibition (IC50) against mTOR enzyme (rated A-F) is less than 100 nM; at recombinant His-CHK1, greater than 5000 nM.

Regarding `CS(=O)(=O)NC(=O)C[C@H]1CC[C@@H](c2nc3c(-c4cnc5ccccc5c4)cnn3c(N)c2Br)CC1` [Compound 7.2, 2-(4-(7-amino-6-bromo-3-(quinolin-3-yl)pyrazolo[1,5-a]pyrimidin-5-yl)cyclohexyl)-N-(methylsulfonyl)acetamide], the concentration for half-maximal inhibition (IC50) at mTOR enzyme (rated A-F) was less than 100 nM; against Cyclin E/CDK2, greater than 5000 nM; on recombinant His-CHK1 it was greater than 5000 nM.

In the case of `CS(=O)(=O)NC(=O)C[C@H]1CC[C@H](c2nc3c(-c4cnc5ccccc5c4)cnn3c(N)c2Br)CC1` [Compound 7.5], the values for the IC50 against mTOR enzyme (rated A-F), on Cyclin E/CDK2 and on recombinant His-CHK1 were less than 100 nM, greater than 5000 nM and greater than 5000 nM, respectively.

On to `CS(=O)(=O)N1CCC(c2nc3c(-c4cnc5ccccc5c4)cnn3c(N)c2Br)C1` (stereo not shown) [Compound 8.1], for which the IC50 at mTOR enzyme (rated A-F) is less than 100 nM; against Cyclin E/CDK2, greater than 5000 nM; at recombinant His-CHK1, greater than 5000 nM.

Regarding `CC(=O)N1CCC(c2nc3c(-c4cnc5ccccc5c4)cnn3c(N)c2Br)C1` (stereo not shown) [Compound 8.7], the IC50 is less than 100 nM at mTOR enzyme (rated A-F) and greater than 5000 nM on recombinant His-CHK1.

On to `Nc1c(Br)c(C2CCS(=O)(=O)CC2)nc2c(-c3cnc4ccccc4c3)cnn12` [Compound 8.15], for which the IC50 at mTOR enzyme (rated A-F) was less than 100 nM; at Cyclin E/CDK2, greater than 5000 nM; on recombinant His-CHK1 it was greater than 5000 nM.

Regarding `CS(=O)(=O)N1CCC(c2cc(N)n3ncc(-c4cnc5ccccc5c4)c3n2)C1` (stereo not shown) [Compound 8.17], the IC50 on mTOR enzyme (rated A-F) is less than 100 nM; against Cyclin E/CDK2 it was greater than 5000 nM; at recombinant His-CHK1, greater than 5000 nM.

With `CS(=O)(=O)N1CCC(c2nc3c(-c4cnc5ccccc5c4)cnn3c(N)c2Br)CC1` [Compound 8.18], the IC50 at mTOR enzyme (rated A-F) was less than 100 nM; on Cyclin E/CDK2, 1000 to 5000 nM; on recombinant His-CHK1, greater than 5000 nM.

Consider `Nc1c(Br)c(N2CCN3C(=O)NC(=O)CC3C2)nc2c(-c3cnc4ccccc4c3)cnn12` (stereo not shown) [Compound 10.5], for which the IC50 is less than 100 nM at mTOR enzyme (rated A-F), 501 to 1000 nM against Cyclin E/CDK2 and greater than 5000 nM on recombinant His-CHK1.

Take `Nc1c(Br)c(N2CCc3[nH]cnc3C2)nc2c(-c3cnc4ccccc4c3)cnn12` [Compound 10.19]: the IC50 on mTOR enzyme (rated A-F) was less than 100 nM; on Cyclin E/CDK2, greater than 5000 nM; at recombinant His-CHK1, greater than 5000 nM.

Regarding `Nc1c(Br)c(-c2ccc(CC(=O)O)cc2)nc2c(-c3cnc4ccccc4c3)cnn12` [Compound 11.1, [4-(7-Amino-6-bromo-3-quinolin-3-yl-pyrazolo[1,5-a]pyrimidin-5-yl)-phenyl]-acetic acid], it took 14.8 nM to reach half-maximal inhibition against mTOR enzyme (IC50).
